From patent US20250296953A1, “3,4-THIAZOLO-STEROIDS AND METHODS OF MAKING AND USING THE SAME” (Arkansas State University - Jonesboro, priority 2018, published 2025)

Legend:
Test in all cases: Melanoma cytotoxicity assay (resazurin)
Type in all cases: cell-based
SK-MEL-25 = SK-MEL-25 melanoma cells, 24 hours with compound, resazurin; concentration not given
Description: (§1) Cytotoxicity Assay: Melanoma cells (˜4000 cells in each well) were incubated in a 96 well plates at 37° C. in 5% CO2 for 24 hours. Compounds were added in triplicates and the plate was further incubated for 24 hours. DMSO and dacarbazine were added as technical and positive controls respectively. Next day resazurin was added and the plate was further incubated for 6 hours followed by reading the plate at 544 nm (excitation) and 590 nm (emission) using BMG Labtech Fluostar Optima plate reader. IC50 values were determined by using Graphpad Prism.
(§2) On day 1, the cell line trypsinized and centrifuged to form cell pellet. The pellet was diluted in media, then counted using Countess automated cell counter. Approximately 4000 cells (198 uL) per well plated in […]. A control well of 200 uL growth media was also prepared. Wells closest to plate perimeter were filled with 200 uL PBS to prevent inner well evaporation. The 96 well plates are incubated in 37° C. incubator at 5% CO2 for 24 hours.
(§3) On day 2, compounds were added (in triplicate) along with DMSO/Dacarbazine controls (2 uL) added to bring wells to volume of 200 μL. The 96 well plates are incubated in 37° C. incubator at 5% CO2 for 24 hours.
(§4) On day 3, 40 μL of 0.15 mg/ml reszurin solution added to wells. Samples were placed in a 37° C. incubator at 5% CO2 for 6 hours. Excitation and emission for fluorescence measured at 544 nm and 590 nm using BMG Labtech Fluostar Optima plate reader
(§5) Percent viability determined by taking average of each triplicate well fluorescence and subtracting GM well reading to remove the background signal. This difference is then divided by the average of the negative control (DMSO) wells to determine percent viability.
(§6) IC50s were determined by using cereal dilution of compound to determine viability. Viabilities and concentration of cells are analyzed in Graphpad Prism by creating sigmoidal curve graph, which will determine the IC50 concentration.
(§7) We analyzed the ability of the thiazole-androstane derivatives to inhibit growth in various melanoma cell lines. The growth inhibition against melanoma cell lines of various compound is shown below in Tables 19 and 20. Inhibition results are reported as the IC50 concentration in μM of the indicated compound or as the percent viability […] of the indicated compound. NA=not available.

SK-MEL-28 = details: for SK-MEL-28 (% inhibition): SK-MEL-28 melanoma cells, 24 hours with compound, resazurin, concentration not given; for SK-MEL-28 (% viability): human, 24 h
Description: as §1, §2, §3, §4, §5, §6, §7

SK-MEL-5 = SK-MEL-5 melanoma cells, 24 hours with compound, resazurin; concentration not given
Description: as §1, §2, §3, §4, §5, §6, §7

Structure (SMILES)	SK-MEL-25 (% inhibition) (SK-MEL-25)	SK-MEL-28 (% inhibition) (SK-MEL-28)	SK-MEL-5 (% inhibition) (SK-MEL-5)	SK-MEL-28 (% viability) (SK-MEL-28)
C[C@]12CCc3sc(NCc4ccccc4)nc3C1=CC[C@@H]1[C@@H]2CC[C@]2(C)C(=O)CC[C@@H]12 [IIa.5, (1S,2R,13R,14S,18S)-7-(benzylamino)-2,18-dimethyl-6-thia-8-azapentacyclo[11.7.0.02,10.05,9.014,18]icosa-5(9),7,10-trien-17-one]	6%	97%	46%	–
C[C@]12CCc3sc(Nc4cccc(C(=O)O)c4)nc3C1=CC[C@@H]1[C@@H]2CC[C@]2(C)C(=O)CC[C@@H]12 [IIa.34, 3-[[(1S,2R,13R,14S,18S)-2,18-dimethyl-17-oxo-6-thia-8-azapentacyclo[11.7.0.02,10.05,9.014,18]icosa-5(9),7,10-trien-7-yl]amino]benzoic acid]	59%	73%	80%	–
C[C@]12CC[C@H]3[C@@H](CC=C4c5sc(-c6ccc(O)c(O)c6)nc5CC[C@@]43C)[C@@H]1CC[C@@H]2O [III.7, 4-[(1S,2R,13R,14S,17S,18S)-17-hydroxy-2,18-dimethyl-8-thia-6-azapentacyclo[11.7.0.02,10.05,9.014,18]icosa-5(9),6,10-trien-7-yl]benzene-1,2-diol]	–	–	–	11%
Cc1nc2c(s1)C1=CC[C@H]3[C@@H]4CC[C@H](O)[C@@]4(C)CC[C@@H]3[C@@]1(C)CC2 [III.1, (1S,2R,13R,14S,17S,18S)-2,7,18-trimethyl-8-thia-6-azapentacyclo[11.7.0.02,10.05,9.014,18]icosa-5(9),6,10-trien-17-ol]	–	–	–	58%
C[C@]12CCc3sc(Nc4ccccc4)nc3C1=CC[C@@H]1[C@@H]2CC[C@]2(C)C(=O)CC[C@@H]12 [IIa.7, (1S,2R,13R,14S,18S)-7-anilino-2,18-dimethyl-6-thia-8-azapentacyclo[11.7.0.02,10.05,9.014,18]icosa-5(9),7,10-trien-17-one]	–	43%	–	–
C[C@]12CC[C@H]3[C@@H](CC=C4c5sc(-c6ccccc6O)nc5CC[C@@]43C)[C@@H]1CC[C@@H]2O [III.6, (1S,2R,13R,14S,17S,18S)-7-(2-hydroxyphenyl)-2,18-dimethyl-8-thia-6-azapentacyclo[11.7.0.02,10.05,9.014,18]icosa-5(9),6,10-trien-17-ol]	–	–	–	32%
C[C@]12CCc3sc(NCCCN4CCOCC4)nc3C1=CC[C@@H]1[C@@H]2CC[C@]2(C)C(=O)CC[C@@H]12 [IIa.4, (1S,2R,13R,14S,18S)-2,18-dimethyl-7-(3-morpholinopropylamino)-6-thia-8-azapentacyclo[11.7.0.02,10.05,9.014,18]icosa-5(9),7,10-trien-17-one]	66%	–	74%	–
C[C@]12CC[C@H]3[C@@H](CC=C4c5sc(-c6ccc(Br)cc6)nc5CC[C@@]43C)[C@@H]1CC[C@@H]2O [III.19, (1S,2R,13R,14S,17S,18S)-7-(4-bromophenyl)-2,18-dimethyl-8-thia-6-azapentacyclo[11.7.0.02,10.05,9.014,18]icosa-5(9),6,10-trien-17-ol]	–	–	–	58%
C[C@]12CC[C@H]3[C@@H](CC=C4c5sc(-c6ccccn6)nc5CC[C@@]43C)[C@@H]1CC[C@@H]2O [III.4, (1S,2R,13R,14S,17S,18S)-2,18-dimethyl-7-(2-pyridyl)-8-thia-6-azapentacyclo[11.7.0.02,10.05,9.014,18]icosa-5(9),6,10-trien-17-ol]	–	–	–	86%
C[C@]12CCc3sc(N)nc3C1=CC[C@@H]1[C@@H]2CC[C@]2(C)C(=O)CC[C@@H]12 [IIa.1, (1S,2R,13R,14S,18S)-7-amino-2,18-dimethyl-6-thia-8-azapentacyclo[11.7.0.02,10.05,9.014,18]icosa-5(9),7,10-trien-17-one]	–	1%	29%	–
